This note sets out measurements from patent publication US20260209152A1, “Substituted Hydroxystilbene Compounds and Derivatives, Synthesis and Uses Thereof” (Kynan Duke IP, LLC, priority 2019, published 2026).

Read-outs that look alike come from different tables or passages of the source.

The experiment has as its system IL-17A secretion from human PBMC stimulated with antiCD3/antiCD28-coated beads. Nature of the experiment: PBMC IL-17 assay (assay number 1321). The format is cell-based. The following applies: for Max Eff.: IL-17 (1321): highest effect as percentage of control maximum effect. The method, then: Inhibition of IL-17A secretion from human PBMC stimulated with antiCD3/antiCD28-coated beads. LEO Pharma Open Innovation assay number 1321
The inflammatory skin disease psoriasis is characterized by cytokines IL-17A and TNFα. In the present assay, human peripheral blood mononuclear cells (PBMC) are stimulated with beads coated with antibodies against CD3 and CD28 to activate the T-cell receptor, and stimulated with IL-23 to promote T-helper17 activity. The cells are incubated for three days, then the secreted level of IL-17A is measured in the culture supernatant using AlphaLISA and the amount of living cells is measured by addition of resazurin (PrestoBlue®) to identify compounds that inhibit cell proliferation or viability. […] Compounds which inhibit IL-17A secretion may be expected to have efficacy in psoriasis.
• PBMC are isolated from fresh human buffy coats by centrifugation on Lymphoprep® following instructions from Sebmate® • Cells are spun down and resuspended in freezing medium (RPMI1640+20% FBS+5% DMSO) • Cells are frozen in aliquots of 8×10^7 cells/vial matching one 384 plate. Cells are placed in Coolcell box and placed in −80° C. freezer for one day. Vials are moved to the −150° C. freezer in a prechilled box.
• Prepare assay medium: RPMI1640+10% heat inactivated FBS and 1% pen/strep, supplemented with human IL-23, 20 ng/mL (R&D systems, cat no 1290-IL-010) • Test compounds: Prepare compound-containing source plate, i.e. titrations in DMSO to be transferred to the assay plate. • Add 70 nL compounds and controls from the source plate to the assay plate. • Thaw the cells by adding 1 vial to 20 ml warm assay medium • Centrifuge the cells down at 170 G in 10 minutes, remove the supernatant and resuspend in new medium. • Filter the cells though a 37 µm strainer. • Count the cells in the cell counter. • Beads (T Cell Activation/Expansion Kit-human, Miltenyi Biotech, cat. no. 130-091-441): Coat beads with antibodies (antiCD3 and antiCD28) according to the kit procedure. • Add the beads to the cells, one bead per cell, 2.1e+06 cells/ml. Use a pipette to mix the cells and beads carefully. • Seed the cell/bead mixture into the assay plate, 70 μL/well ([…]) • Place the plates in a humidity chamber with lid (24.5×24.5 cm box added H2O in the bottom). • Incubate plates at 37° C., 5% CO2/95% air for 3 days.
• IL-17A concentration in the supernatants is measured using an alphaLISA kit (Perkin Elmer, cat no. AL219F). • Pretest to find optima dilution of samples: Test 5 μL supernatant from control wells and run IL-17A alphaLISA assay with only 2 hours of incubation. • When data are available, remove assay plates from incubation and equilibrate to room temperature for 30 minutes. • Transfer 5 μL or corrected amounts of supernatant to a 384-proxy plate • Add 5 μL alphaLISA acceptor beads. • Incubate 1 hour at room temperature • Add 5 μL donor beads • Incubate overnight at room temperature protected from light. • Add 7 μL PrestoBlue reagent (resazurin)/well to the assay plate and incubated for 2-4 hours at 37° C./5% CO2. The fluorescence in the wells is measured (Ex615/Em 535).
IL-17A concentration in the supernatants is measured using an alphaLISA kit (Perkin Elmer, cat no. AL219F).
The capacity of the test compound to inhibit IL-17A release is normalized to the signal in the negative control wells treated with a toxic compound, Terfenadine.

[1] abbreviates: inhibition of IL-17A secretion, human PBMC, read-out: Abs EC50: IL-17 (1321).

`CCOc1cc(O)cc(/C=C/c2ccc(NC(=O)C(=O)O)c(OC)c2)c1CC=C(C)C` [Compound 35, (E)-2-((4-(3-Ethoxy-5-hydroxy-2-(3-methylbut-2-en-1-yl)styryl)-2-methoxyphenyl)amino)-2-oxoacetic acid]: the “Max Eff.: IL-17 (1321)” value turned out to be 19%. Besides, the EC50 under setting [1] came to 5000 nM.
For `COc1cc(/C=C/c2cc(O)cc(OC)c2CC=C(C)C)ccc1NC=O` [Compound 27, (E)-N-(4-(5-hydroxy-3-methoxy-2-(3-methylbut-2-en-1-yl)styryl)-2-methoxyphenyl)formamide], the “reduction of IL-17A release, in words” value is “significantly less effective” and the “Max Eff.: IL-17 (1321)” value was found to be 65%. In addition, under setting [1], the EC50 turned out to be 2120 nM.
Take `CCOc1cc(O)cc(/C=C/c2ccc(NC=O)c(OC)c2)c1CC=C(C)C` [Compound 28, (E)-N-(4-(3-Ethoxy-5-hydroxy-2-(3-methylbut-2-en-1-yl)styryl)-2-methoxyphenyl)formamide]: the “reduction of IL-17A release, in words” value is listed as “low potency reduction of IL-17A release” and the “Max Eff.: IL-17 (1321)” value is reported as 73%. For the setting “Homo sapiens, PBMC, read-out: EC50, inhibition of IL-17A secretion”, the EC50 was found to be 526 nM. For the same compound, where the note is “Homo sapiens, PBMC, read-out: maximum efficacy, IL-17A secretion”, the Emax came to 73%. Moreover, the EC50 under setting [1] stood at 526 nM.
With `CCOc1cc(O)cc(/C=C/c2ccc(O)c(OC)c2)c1CC=C(C)C` [Compound 8, (E)-3-Ethoxy-5-(4-hydroxy-3-methoxystyryl)-4-(3-methylbut-2-en-1-yl)phenol], the “Max Eff.: IL-17 (1321)” value was found to be 69%. In addition, the 50% effective concentration (EC50) under setting [1] was determined as 1550 nM.
In the same order, the values of `CCOc1cc(O)cc(/C=C/c2ccc(O)c(O)c2)c1CC=C(C)C` [Compound 20, (E)-4-(3-Ethoxy-5-hydroxy-2-(3-methylbut-2-en-1-yl)styryl)benzene-1,2-diol] are 85% and 1650 nM.
For `COc1cc(/C=C/c2cc(O)cc(OC)c2CC=C(C)C)ccc1O` [Compound 1, (E)-3-(4-hydroxy-3-methoxystyryl)-5-methoxy-4-(3-methylbut-2-en-1-yl)phenol], in that order: 54% and 4430 nM.
For `COc1cc(/C=C/c2cc(O)cc(OC)c2CC=C(C)C)ccc1NC(=O)CN` [Compound 31, (E)-2-amino-N-(4-(5-hydroxy-3-methoxy-2-(3-methylbut-2-en-1-yl)styryl)-2-methoxyphenyl)acetamide], in that order: 53% and 4870 nM.
